Reference: patent US20240299304A1, “A METHOD FOR THE PRODUCTION OF GASTRORETENTIVE COMPACT MATRICES FOR THE CONTROLLED RELEASE OF ACTIVE SUBSTANCES AND COMPACT MATRICES THUS OBTAINED” (UNIVERSITA DEGLI STUDI DI GENOVA, priority 2021, published 2024)

Assay: pH in water of pH regulators before and after heat treatment
Assay type: physicochemical
Conditions: for pH in water after heat treatment: after heat treatment at 150° C. for 15 min

Row | SMILES | pH in water after heat treatment | pH in water before heat treatment
1 | O.O.O.O.O.O.O.O.O.O.O.O.O=P([O-])([O-])[O-].[Na+].[Na+].[Na+] [Na3PO4 12H2O] | 10 | 10
2 | O=P([O-])([O-])O.[Na+].[Na+] [Na2HPO4 2H2O, disodium hydrogen phosphate] | 6 | 6
3 | O=C([O-])O.[Na+] [NaHCO3, sodium bicarbonate] | 10 | 7
4 | O=C([O-])[O-].[Mg+2] [MgCO3] | 7 | 6
5 | O=C([O-])[O-].[Na+].[Na+] [Na2CO3, sodium carbonate] | 10 | 10
